Measured values published in publication PMC4871277 (Biochemical pharmacology, 2015).
Like-named read-outs stand apart in the source and are kept apart here. One block for each compound: values may come before it.

Columns and labels:
RAW264.7 macrophages = assay: Viability assay; assay type: cell-based, murine; conditions: C646 concentrations above 30 μM, 20 hrs
[1] = tested on: RAW264.7 murine macrophages; assay: Gene expression analysis in RAW264.7 by RT-q-PCR after LPS and IFNγ stimulus; assay type: cell-based
[2] = tested on: murine precision-cut lung slices (PCLS); assay type: cell-based
HDAC1 = HDAC1 (Homo sapiens, UniProt Q13547); assay: human recombinant HDAC inhibition assay; assay type: biochemical; conditions: N.I. = no inhibition
HDAC3 = HDAC3 (Homo sapiens, UniProt O15379); assay: human recombinant HDAC inhibition assay; assay type: biochemical; conditions: read-out: Ki value HDAC3
HDAC2 = HDAC2 (Homo sapiens, UniProt Q92769); assay: human recombinant HDAC inhibition assay and Lineweaver-Burk plots; assay type: biochemical
[3] = tested on: α-tubulin acetylation in RAW264.7 cells; assay: α-tubulin acetylation immunoblot; assay type: cell-based, murine
[4] = tested on: NF-κB promoter activity in RAW-Blue macrophages; assay: RAW-Blue NF-κB reporter gene assay; assay type: cell-based, murine; conditions: 16 hrs pre-treatment + 4 hrs stimulus
[5] = biological target: T1, lysine acetyltransferase 8 (KAT8) (Homo sapiens, UniProt Q9H7Z6); assay: KAT8 activity assay; assay type: biochemical; conditions: N.I. = no inhibition
T1 sequence (Q9H7Z6 1-458): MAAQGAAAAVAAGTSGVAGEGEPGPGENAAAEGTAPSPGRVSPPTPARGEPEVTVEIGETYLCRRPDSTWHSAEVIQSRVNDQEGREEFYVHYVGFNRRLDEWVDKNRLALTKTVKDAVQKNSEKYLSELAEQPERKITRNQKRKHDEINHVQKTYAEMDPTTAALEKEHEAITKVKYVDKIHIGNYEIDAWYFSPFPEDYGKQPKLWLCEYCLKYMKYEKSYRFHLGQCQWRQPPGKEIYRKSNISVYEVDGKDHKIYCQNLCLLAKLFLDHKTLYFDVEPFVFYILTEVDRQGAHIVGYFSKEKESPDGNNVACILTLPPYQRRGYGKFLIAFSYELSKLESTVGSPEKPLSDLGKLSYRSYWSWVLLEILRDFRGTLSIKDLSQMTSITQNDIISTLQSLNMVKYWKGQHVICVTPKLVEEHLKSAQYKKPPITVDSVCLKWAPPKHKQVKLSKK

HDAC6 = biological target: T2, HDAC6 (Homo sapiens, UniProt Q9UBN7); assay: human recombinant HDAC inhibition assay and Lineweaver-Burk plots; assay type: biochemical
T2 sequence (Q9UBN7 1-1215): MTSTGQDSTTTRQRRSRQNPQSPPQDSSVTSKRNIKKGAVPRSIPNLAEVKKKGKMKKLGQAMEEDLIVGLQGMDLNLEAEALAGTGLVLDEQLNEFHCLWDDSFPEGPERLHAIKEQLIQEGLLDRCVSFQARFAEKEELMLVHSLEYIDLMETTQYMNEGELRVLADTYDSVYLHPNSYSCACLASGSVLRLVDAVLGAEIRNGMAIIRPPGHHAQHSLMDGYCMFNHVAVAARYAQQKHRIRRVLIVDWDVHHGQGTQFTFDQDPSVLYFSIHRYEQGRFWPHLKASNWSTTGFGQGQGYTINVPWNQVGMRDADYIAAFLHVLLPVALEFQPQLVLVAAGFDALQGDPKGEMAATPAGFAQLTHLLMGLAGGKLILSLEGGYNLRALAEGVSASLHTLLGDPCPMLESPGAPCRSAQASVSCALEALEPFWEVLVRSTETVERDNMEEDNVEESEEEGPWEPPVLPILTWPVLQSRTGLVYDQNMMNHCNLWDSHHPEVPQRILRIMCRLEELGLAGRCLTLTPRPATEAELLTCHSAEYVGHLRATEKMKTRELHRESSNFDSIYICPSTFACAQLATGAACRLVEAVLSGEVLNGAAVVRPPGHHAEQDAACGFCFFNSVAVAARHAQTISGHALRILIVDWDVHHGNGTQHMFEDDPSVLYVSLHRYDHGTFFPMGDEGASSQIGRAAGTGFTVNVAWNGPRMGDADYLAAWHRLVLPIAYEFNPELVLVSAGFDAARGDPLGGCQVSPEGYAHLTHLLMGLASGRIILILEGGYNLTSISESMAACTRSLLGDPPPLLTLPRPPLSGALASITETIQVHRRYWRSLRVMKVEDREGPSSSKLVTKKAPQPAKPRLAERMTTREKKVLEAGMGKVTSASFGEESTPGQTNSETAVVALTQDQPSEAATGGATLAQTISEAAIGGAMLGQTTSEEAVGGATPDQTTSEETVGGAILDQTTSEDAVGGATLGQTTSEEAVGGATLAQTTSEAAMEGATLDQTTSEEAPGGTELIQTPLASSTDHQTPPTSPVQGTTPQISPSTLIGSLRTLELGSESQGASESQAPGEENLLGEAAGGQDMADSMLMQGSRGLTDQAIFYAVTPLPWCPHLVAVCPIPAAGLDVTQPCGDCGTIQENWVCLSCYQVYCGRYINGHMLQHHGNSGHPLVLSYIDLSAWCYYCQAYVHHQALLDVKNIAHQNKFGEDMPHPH

HDAC8 = biological target: T3, HDAC8 (Homo sapiens, UniProt Q9BY41); assay: human recombinant HDAC inhibition assay; assay type: biochemical; conditions: read-out: Ki value HDAC8
T3 sequence (Q9BY41 1-377): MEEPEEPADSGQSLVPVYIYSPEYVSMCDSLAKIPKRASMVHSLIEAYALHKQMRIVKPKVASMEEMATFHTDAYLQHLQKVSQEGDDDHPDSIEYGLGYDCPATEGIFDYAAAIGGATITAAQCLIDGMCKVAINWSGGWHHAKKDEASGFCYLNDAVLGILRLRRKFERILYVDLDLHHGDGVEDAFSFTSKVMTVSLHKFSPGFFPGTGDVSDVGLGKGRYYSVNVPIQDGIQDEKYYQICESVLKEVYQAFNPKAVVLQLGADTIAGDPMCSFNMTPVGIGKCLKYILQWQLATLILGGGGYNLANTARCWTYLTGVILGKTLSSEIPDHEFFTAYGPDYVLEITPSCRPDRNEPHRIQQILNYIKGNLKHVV

[6] = tested on: histone H3 and H4 acetylation in RAW264.7 cells; assay: Histone acetylation by acetic anhydride-d6 labelling and LC-MS/MS; assay type: cell-based, murine
type I and II HDACs = assay: recombinant HDAC inhibition, summary over isoenzymes; assay type: biochemical, human
[7] = tested on: precision-cut lung slices (PCLS); assay: PCLS viability by lactate dehydrogenase; assay type: cell-based, murine; conditions: C646 concentrations above 25 μM
[8] = RAW264.7, C646 at 30 μM, downregulation
[9] = Boc-Lys-(Ac)-AMC as substrate, Lineweaver-Burk plot
[10] = C646 at 15, 20, 25 or 30 μM for 6 hrs

Sequence of HDAC2 (Q92769 whole entry): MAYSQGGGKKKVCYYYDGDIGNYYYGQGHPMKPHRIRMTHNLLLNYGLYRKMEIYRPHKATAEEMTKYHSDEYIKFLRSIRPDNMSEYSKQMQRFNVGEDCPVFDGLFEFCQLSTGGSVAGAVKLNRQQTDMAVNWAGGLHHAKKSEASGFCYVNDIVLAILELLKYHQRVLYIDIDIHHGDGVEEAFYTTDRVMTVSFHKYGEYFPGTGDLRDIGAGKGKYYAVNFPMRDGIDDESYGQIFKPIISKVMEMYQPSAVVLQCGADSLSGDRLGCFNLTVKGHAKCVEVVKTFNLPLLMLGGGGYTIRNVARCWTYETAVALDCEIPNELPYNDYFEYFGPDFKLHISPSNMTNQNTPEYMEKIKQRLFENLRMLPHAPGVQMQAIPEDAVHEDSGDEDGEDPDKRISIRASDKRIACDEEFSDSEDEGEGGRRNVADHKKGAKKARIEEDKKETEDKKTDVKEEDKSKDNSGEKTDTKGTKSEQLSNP
Sequence of HDAC1 (Q13547 whole entry): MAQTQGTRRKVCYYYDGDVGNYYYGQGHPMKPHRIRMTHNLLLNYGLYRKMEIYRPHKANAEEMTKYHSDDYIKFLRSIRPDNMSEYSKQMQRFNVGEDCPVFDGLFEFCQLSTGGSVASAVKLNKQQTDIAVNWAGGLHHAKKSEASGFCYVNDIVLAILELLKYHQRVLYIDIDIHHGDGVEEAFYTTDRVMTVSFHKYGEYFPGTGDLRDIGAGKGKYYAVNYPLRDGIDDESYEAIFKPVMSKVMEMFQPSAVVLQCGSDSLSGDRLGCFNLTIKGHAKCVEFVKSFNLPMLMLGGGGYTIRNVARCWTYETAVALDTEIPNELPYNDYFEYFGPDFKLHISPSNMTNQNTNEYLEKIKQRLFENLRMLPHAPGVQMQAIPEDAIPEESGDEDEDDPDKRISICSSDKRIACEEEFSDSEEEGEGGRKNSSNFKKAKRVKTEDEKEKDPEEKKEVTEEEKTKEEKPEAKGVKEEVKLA
Sequence of HDAC3 (O15379 whole entry): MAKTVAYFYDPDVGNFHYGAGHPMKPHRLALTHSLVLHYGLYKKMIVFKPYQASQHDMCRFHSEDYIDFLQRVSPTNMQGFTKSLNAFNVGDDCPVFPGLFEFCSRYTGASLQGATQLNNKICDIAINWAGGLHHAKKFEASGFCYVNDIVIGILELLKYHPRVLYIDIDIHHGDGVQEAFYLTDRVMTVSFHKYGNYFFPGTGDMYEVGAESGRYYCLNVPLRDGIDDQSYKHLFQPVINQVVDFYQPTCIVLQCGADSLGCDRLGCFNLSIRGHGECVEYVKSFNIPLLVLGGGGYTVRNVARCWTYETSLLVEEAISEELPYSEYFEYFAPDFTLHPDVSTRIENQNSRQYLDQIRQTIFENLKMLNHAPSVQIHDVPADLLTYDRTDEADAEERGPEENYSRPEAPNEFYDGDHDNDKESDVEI
Sequence of HDAC3 (Q9Y618 395-489 partner limits assumed): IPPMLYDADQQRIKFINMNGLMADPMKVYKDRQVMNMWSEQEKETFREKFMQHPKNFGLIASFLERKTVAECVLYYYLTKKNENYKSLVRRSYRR

Ki value HDAC1 (HDAC1): N.I.
Ki (HDAC3): 25 ± 5 µM
kinetics of inhibition of HDAC2 (HDAC2; [9]): non-competitive inhibition
Ki (HDAC2; read-out: Ki value HDAC2): 15 ± 1 µM
Ki value KAT8 [5]: N.I.
kinetics of inhibition of HDAC6 (HDAC6; [9]): non-competitive inhibition
Ki (HDAC6; read-out: Ki value HDAC6): 7 ± 1 µM
Ki (HDAC8): 11 ± 1 µM
concentration from which histone deacetylases are inhibited (type I and II HDACs): ≥ 7 µM
Structure (SMILES): CC1=NN(c2ccc(C(=O)O)cc2)C(=O)/C1=C\c1ccc(-c2cc(C)c(C)cc2[N+](=O)[O-])o1 [C646]
viability of the macrophages (RAW264.7 macrophages): decreased viability
percentage of change in IL-12b gene expression compared to vehicle [1, 8]: 54.2%
percentage of change in TNFα gene expression compared to vehicle [1, 8]: 54.1%
percentage of change in IL-1β gene expression compared to vehicle ([2]; C646 at 25 μM, downregulation): 72.3%
percentage of change in IL-12b gene expression compared to vehicle ([2]; C646 at 25 μM, downregulation): 85.0%
percentage of change in TNFα gene expression compared to vehicle ([2]; C646 at 25 μM, downregulation): 79.1%
percentage of change in iNOS gene expression compared to vehicle ([2]; C646 at 25 μM, downregulation): 58.4%
α-tubulin acetylation ([3]; C646 15 μM for 6 hrs): but not at 15 μM
α-tubulin acetylation ([3]; C646 30 μM for 6 hrs): pronounced inhibition
α-tubulin acetylation ([3]; C646 30 μM for 20 hrs): inhibition of α-tubulin acetylation was also observed
LPS and IFNγ induced NF-κB promoter activity ([4]; C646 at 15 μM or higher (up to 30 μM)): significant inhibition
acetylation status of histone H3 res. 18-26 (H3 K18 and H3 K23) ([6]; C646 30 μM for 6 hrs): small yet significant increase
acetylation status of histone H4 res. 4-17 [6, 10]: No significant changes
acetylation status of other histone H4 peptides [6, 10]: no changes in acetylation status
histone acetylation (H3 res. 18-26, H4 res. 4-17) ([6]; C646 at 15, 20, 25 or 30 μM for 20 hrs, no inflammatory stimulus): No changes in histone acetylation
acetylation status of histone H3 res. 18-26 (H3 K18 and H3 K23) ([6]; C646 at concentrations lower than 30 μM for 6 hrs): not significant
viability of PCLS [7]: decreased viability

Structure (SMILES): O=C(CCCCCCC(=O)Nc1ccccc1)NO [SAHA, suberanilohydroxamic acid]
percentage of change in IL-1β gene expression compared to vehicle ([1]; RAW264.7, SAHA at 0.41 μM, upregulation): 317%
percentage of change in iNOS gene expression compared to vehicle ([2]; SAHA at 0.41 μM, downregulation): 39.9%
percentage of change in IL-1β gene expression compared to vehicle ([2]; SAHA at 0.41 μM, upregulation): 41.5%
percentage of change in IL-6 gene expression compared to vehicle ([2]; SAHA at 0.41 μM, upregulation): 58.8%
α-tubulin acetylation ([3]; SAHA, data not shown): upregulated
LPS and IFNγ induced NF-κB promoter activity ([4]; SAHA 0.41 μM): further enhanced
acetylation of histone-derived peptides H4 4-17 and H3 18-26 ([6]; SAHA 0.41 µM for 20 hrs): increased acetylation
